Here are results for one compound from US5736629A, “Herbicide resistant rice” (priority 1997, dated 1998).

Each structure is given as a SMILES string.

Assay [1] concerns the target T1, AHAS (acetohydroxyacid synthase) in enzyme extracts from normal rice variety Lemont (Oryza sativa subsp. japonica, UniProt Q6K2E8).
T1 construct: 40.0 grams (fresh weight) of tissue were extracted in the same manner for each of the three varieties; from tissue; host or cells: stem tissue of greenhouse-grown rice seedlings, variety Lemont (leaf blades removed)
T1 sequence (Q6K2E8 40-644 limits assumed): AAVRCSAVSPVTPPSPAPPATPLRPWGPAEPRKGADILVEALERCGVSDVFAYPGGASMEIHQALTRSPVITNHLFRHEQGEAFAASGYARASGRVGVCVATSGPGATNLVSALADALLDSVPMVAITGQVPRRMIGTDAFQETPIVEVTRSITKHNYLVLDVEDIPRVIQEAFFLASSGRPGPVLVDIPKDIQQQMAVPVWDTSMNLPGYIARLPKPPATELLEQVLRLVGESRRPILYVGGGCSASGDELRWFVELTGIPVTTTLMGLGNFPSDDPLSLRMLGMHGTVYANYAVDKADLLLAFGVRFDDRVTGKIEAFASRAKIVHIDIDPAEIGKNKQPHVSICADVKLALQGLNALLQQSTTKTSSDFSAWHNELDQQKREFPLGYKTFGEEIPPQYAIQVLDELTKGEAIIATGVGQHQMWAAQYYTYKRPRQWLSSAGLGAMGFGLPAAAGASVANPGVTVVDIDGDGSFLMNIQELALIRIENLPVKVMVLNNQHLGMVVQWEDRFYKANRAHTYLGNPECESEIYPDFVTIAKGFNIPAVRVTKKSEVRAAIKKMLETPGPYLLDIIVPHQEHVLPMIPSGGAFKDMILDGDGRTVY
In words: AHAS enzyme assay, extract from rice variety Lemont. It is filed as biochemical. An excerpt: (§1) The herbicide resistance of the AHAS enzyme from the ATCC 75295 rice line was compared to the resistance of the AHAS enzymes from the rice varieties "Lemont" and "Mercury," the varieties that were the ancestors of this rice line. The procedures used to assay the activity of acetohydroxyacid synthase were substantially as described in B. K. Singh et al., "Assay of Acetohydroxyacid Synthase," Analytical Biochemistry, vol. 171, pp. 173-179 (1988), except as noted. In the first paragraph of Singh's "Materials and Methods," instead of corn suspension culture cells, stem tissues from greenhouse-grown rice seedlings at the four-leaf stage of development were used. Leaf blades were removed, and 40.0 grams (fresh weight) of tissue were extracted in the same manner for each of the three varieties. […] Pursuit herbicide (imazethapyr) was included in the "standard reaction mixture" for the AHAS assay in the concentrations indicated in Table 1 below. Checks were made of direct acetoin formation during the enzyme assay. Each treatment was conducted with two replicates.

Assay [2] deals with T2, AHAS (acetohydroxyacid synthase) in enzyme extracts from rice line ATCC 75295 (Oryza sativa subsp. japonica, UniProt Q6K2E8).
T2 construct: 40.0 grams (fresh weight) of tissue were extracted in the same manner for each of the three varieties; from tissue; host or cells: stem tissue of greenhouse-grown rice seedlings, line ATCC 75295 (leaf blades removed)
T2 sequence (Q6K2E8 40-644 limits assumed): T1 sequence (Q6K2E8 40-644 limits assumed)
In words: AHAS enzyme assay, extract from rice line ATCC 75295. Type of assay: biochemical.
Source text: as §1

Assay [3] has as its system Non-Resistant Control rice plants (check varieties). Description: Greenhouse test of plant vigor after imazethapyr, non-resistant controls. Type of assay: in vivo. The following applies: for Rating of rice plant vigor: 36 days after treatment at 2-3 leaf stage, 10-point scale, 0 = dead plant, 10 = no visible injury. An excerpt: In the greenhouse tests, pots were planted with F3 seed from crosses between the two lines. Each pot was planted with seed from a single panicle from a single plant; each pot was therefore the equivalent of a headrow. A total of 140 pots were planted in this manner, along with 40 pots of various non-resistant genotypes for comparison. Imazethapyr was applied at the 2-3 leaf stage two weeks after planting, at rates equivalent to 0.063 lb. active ingredient (a.i.) per acre, 0.125 lb. a.i./acre, and 0.313 lb. a.i./acre.
Table 2 summarizes measurements taken 36 days after spraying rice at the 2-3 leaf stage of development.

The test system of assay [4] is resistant progeny row (rice line ATCC 75295). Description: Open-field spray screen of anther-culture progeny rows, resistant row. It is filed as in vivo. On the procedure:
This resistant line was derived by conducting anther culture on the F2 progeny of a backcross made by pollinating a rice plant of the variety "Lemont" with pollen from the rice variety "Mercury," followed by a backcross using pollen from this hybrid to pollinate a plant of the variety "Mercury." The resulting backcross is described as Mercury//Lemont/Mercury. Anthers collected from a plant resulting from this backcross were plated on callus induction medium, and the resulting calli were transferred to plant regeneration media. The procedures used were generally as described in Croughan and Chu, "Rice (Oryza saliva L.): Establishment of Callus Cultures and the Regeneration of Plants" in Bajaj (Ed.), "Biotechnology in Agriculture and Forestry," pp. 19-37 (1991). Several regenerated plants were produced and grown to maturity in a greenhouse to produce seed. Progeny seed were planted in an open field, and herbicide applications were made using a garden tractor-mounted spray rig.
A set of 4,193 progeny rows derived from this anther culture procedure were planted in an open field, and were sprayed with 4 ounces per acre of Pursuit (1.00 ounce active ingredient imazethapyr per acre) at the four-leaf stage of seedling development. […]

For `CCc1cnc(C2=NC(C)(C(C)C)C(=O)N2)c(C(=O)O)c1` (racemic) [imazethapyr, (±)-2-[4,5-dihydro-4-methyl-4-(1-methylethyl)-5-oxo-1H-imidazol-2-yl]-5-ethyl-3-pyridinecarboxylic acid], the activity at 0.1 µM in assay [1] (imazethapyr 0.1 μM) and in assay [2] (imazethapyr 0.1 μM) was 102% in each case. Besides, the activity at 1 µM in assay [1] (imazethapyr 1 μM) was 102%; in assay [2] (imazethapyr 1 μM) it was 89%. Besides, the values for the activity at 10 µM in assay [1] (imazethapyr 10 μM) and in assay [2] (imazethapyr 10 μM) were 87% and 61%, respectively. For the same compound, the activity at 100 µM turned out to be 81% in assay [1] (imazethapyr 100 μM) and 48% in assay [2] (imazethapyr 100 μM). The “Rating of rice plant vigor” value is given as 0.33 ± 0.18 in assay [3] (0.063 lb. a.i./acre), 0.12 ± 0.06 in assay [3] (0.125 lb. a.i./acre) and 0.15 ± 0.15 in assay [3] (0.313 lb. a.i./acre). This compound displayed a Mortality in assay [3] (check varieties, all treatments (0.063, 0.125, 0.313 lb. a.i./acre)) of 100%. In addition, the “Effect on plants (in words)” value in assay [3] (non-resistant rice, 0.063 pounds active ingredient per acre) was “completely killed”; in assay [3] (nonresistant controls, each of the nonzero rates (0.063, 0.125, 0.313 lb. a.i./acre)), “killed”. Moreover, the “Symptoms (in words)” value is listed as “no apparent symptoms” in assay [4] (4 ounces per acre Pursuit (1.00 ounce a.i. per acre), four-leaf stage, open field) and “no apparent symptoms” in assay [4] (second spray 8 ounces/acre Pursuit (2.00 ounce a.i. per acre), four weeks after the initial treatment).
